# Experimental data reported in patent US20260294906A1, “TREATING PSORIASIS USING A SMALL MOLECULE INHIBITOR OF TUMOR NECROSIS FACTOR ALPHA” (SANOFI, priority 2023, published 2026).
# Entries after “also recorded” stand apart in the source; their conditions may differ.
# Tested on: participants with mild to moderate psoriasis
# Experiment: Liver function laboratory tests in the clinical study
# Format: in vivo, human
# Description: Two study interventions were used, Compound 1 and placebo. The Compound 1 intervention comprised 4× tablets of Compound 1 50 mg twice daily, i.e. 200 mg BID, for 4 weeks. The placebo intervention was 4× tablets of placebo twice daily for 4 weeks. Tablets were administered orally.
# Laboratory tests (from at least 10 hours under fasting conditions for blood samples) included: • Hematology: red blood cell count, hematocrit, hemoglobin, white blood cell count with differential count (neutrophils, eosinophils, basophils, monocytes, and lymphocytes), platelets. • Biochemistry: • Plasma/serum electrolytes: sodium, potassium, chloride, calcium, • Liver function: AST, ALT, alkaline phosphatase, GGT, total and conjugated bilirubin, • Renal function: urea, creatinine, • Metabolism: glucose, albumin, total proteins, total cholesterol, triglycerides, • Potential muscle toxicity: CK, • International normalized ratio (INR), and activated partial thromboplastin time (aPTT), • C-reactive protein; the CRP levels were evaluated by an independent investigator who is not involved in the study to protect the blinding of the study. CRP values were provided by the independent investigator to the investigator in case of medical need. • Procalcitonin at screening, week 2 and EOS. • QuantiFERON-TB Gold (QFT) test.
# For AESI in this study, the Sponsor was to be informed immediately (i.e., within 24 hours), as per SAE notification guidelines, even if a seriousness criterion was not met, using the corresponding screens in the eCRF. • ALT increased >3×ULN. • QT prolongation (QTcF≥500 milli seconds [ms]) and/or a delta QTc change from baseline>60 ms (12-lead ECG). In the event of prolongation of QTc interval (automatic measurement)≥500 ms, confirmed by a manual reading by the Investigator or a physician delegated by the Investigator using the Fridericia formula for correcting QT, the participant was placed under supervision in a specialized setting. Investigational medicinal product administration was stopped, and appropriate blood samples collected. Subsequent ECG monitoring of the participant was then performed on a regular and clinically responsible basis until the QTc interval returned to a safe value as determined by the Investigator in agreement with the Sponsor. • Photosensitivity (Grade 2 and above AE due to sun exposure). • Pregnancy. • Symptomatic overdose. • An overdose (accidental or intentional) with the IMP is an event suspected by the Investigator or spontaneously notified by the participant (not based on systematic pills count) and defined as at least twice the intended dose within the intended therapeutic interval, adjusted according to the tested drug.
# Once the participant was included in the clinical trial, the following laboratory abnormalities were monitored, documented, and managed: • Neutropenia, characterized as neutrophils <1500/mm^3 or according to ethnic group (recorded as an AE only if at least 1 of the criteria listed above was met) • Thrombocytopenia, characterized as platelets <100,000/mm^3 confirmed with or without bleeding (recorded as an AE only if at least 1 of the criteria listed above was met) • Increase of ALT. Patients were monitored where 3 ULN<ALT≤5 ULN and total bilirubin was ≤2 ULN. […]
smiles,measurement,setting,value
"CN1C(=O)c2cccc(OC(F)F)c2[C@H]2C[C@@H]1c1nc3ccc(-c4cnc(C5(N)CCC5)nc4)cc3n12 [Compound 1, (7R,14R)-11-[2-(1-aminocyclobutyl)pyrimidin-5-yl]-1-(difluoromethoxy)-6-methyl-6,7-dihydro-7,14-methanobenzimidazo[1,2-b][2,5]benzodiazocin-5(14H)-one]",potentially clinically significant abnormality (PCSA) for ALT increase,200 mg BID,no PCSA for ALT increase
same,"total bilirubin, first participant","200 mg BID, Day 8, baseline 1.5 ULN",1.67 ULN
same,"total bilirubin, second participant","200 mg BID, day not given, baseline 1.3 ULN",1.56 ULN
same,Number of participants with total bilirubin increased >1.5 ULN,"200 mg BID, one single occasion",two
same,liver function tests / impact on liver parameters (in words),4-week clinical trial,"no signal for risks on liver function tests; also recorded: neither was any significant impact on cardiac parameters (e.g., QTcF interval) or liver parameters (e.g., AST, ALT, or bilirubin levels) observed"
